{"source": "ChEMBL document CHEMBL5058641", "about": "“Data for DCP probe TP-050” (2022)", "key": {"[1]": {"biological_target": "Voltage-gated inwardly rectifying potassium channel KCNH2 (Homo sapiens, UniProt Q12809)", "experiment": "hERG Eurofins SafetyScreen (Other)", "set-up": "species or system Blocker"}, "[2]": {"biological_target": "Amine oxidase [flavin-containing] A (Homo sapiens, UniProt P21397)", "experiment": "MAOA Eurofins SafetyScreen (Other)", "set-up": "species or system Inhibitor"}, "Mu-type opioid receptor [3]": {"biological_target": "T1, Mu-type opioid receptor (Homo sapiens, UniProt P35372)", "T1 sequence (P35372 whole entry)": "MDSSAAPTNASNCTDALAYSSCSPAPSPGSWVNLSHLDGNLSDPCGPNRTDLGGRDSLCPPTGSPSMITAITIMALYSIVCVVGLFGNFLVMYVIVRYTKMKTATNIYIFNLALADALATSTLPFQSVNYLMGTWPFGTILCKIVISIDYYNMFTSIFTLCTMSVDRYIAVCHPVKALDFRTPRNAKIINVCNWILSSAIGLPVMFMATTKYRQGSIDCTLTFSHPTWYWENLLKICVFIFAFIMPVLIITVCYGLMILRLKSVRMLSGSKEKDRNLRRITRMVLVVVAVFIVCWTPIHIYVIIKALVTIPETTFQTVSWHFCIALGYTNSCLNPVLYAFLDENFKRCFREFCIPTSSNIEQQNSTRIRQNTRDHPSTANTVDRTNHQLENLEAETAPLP", "experiment": "OPRM1 Eurofins SafetyScan (Receptor)"}, "[4]": {"biological_target": "Prostaglandin G/H synthase 2 (Homo sapiens, UniProt P35354)", "experiment": "COX2 Eurofins SafetyScreen (Other)", "set-up": "species or system Inhibitor"}, "Insulin receptor": {"biological_target": "Insulin receptor (Homo sapiens, UniProt P06213)", "experiment": "INSR Eurofins SafetyScreen (Other)", "set-up": "species or system Inhibitor"}, "[5]": {"biological_target": "T2, Sodium-dependent dopamine transporter (Homo sapiens, UniProt Q01959)", "T2 sequence (Q01959 whole entry)": "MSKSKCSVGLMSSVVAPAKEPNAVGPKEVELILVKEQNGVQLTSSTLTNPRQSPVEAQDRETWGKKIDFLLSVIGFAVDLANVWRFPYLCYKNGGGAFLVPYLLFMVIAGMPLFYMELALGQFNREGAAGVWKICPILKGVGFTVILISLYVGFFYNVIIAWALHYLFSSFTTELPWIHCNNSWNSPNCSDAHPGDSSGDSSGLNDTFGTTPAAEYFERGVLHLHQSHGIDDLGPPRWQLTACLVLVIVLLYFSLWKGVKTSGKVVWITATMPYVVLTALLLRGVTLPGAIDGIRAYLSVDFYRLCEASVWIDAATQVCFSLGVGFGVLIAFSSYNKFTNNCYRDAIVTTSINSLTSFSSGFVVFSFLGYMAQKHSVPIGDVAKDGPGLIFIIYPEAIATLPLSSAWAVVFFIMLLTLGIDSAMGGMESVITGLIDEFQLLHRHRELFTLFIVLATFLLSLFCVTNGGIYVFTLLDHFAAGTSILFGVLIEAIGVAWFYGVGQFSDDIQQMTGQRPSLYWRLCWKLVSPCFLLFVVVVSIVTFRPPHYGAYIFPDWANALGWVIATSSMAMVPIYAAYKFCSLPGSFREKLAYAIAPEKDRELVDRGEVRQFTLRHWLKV", "experiment": "GPCRScan assay: inhibition of DAT", "set-up": "radioligand conc. used [nm] 3.6 – 16.0, parental cells stable HEK"}, "[6]": {"experiment": "GPCRScan assay: inhibition of GABA/PBR", "set-up": "species or system Rattus norvegicus; radioligand conc. used [nm] 0.3 – 2.0, parental cells brain tissue"}, "[7]": {"biological_target": "Sodium-dependent noradrenaline transporter (Homo sapiens, UniProt P23975)", "conditions": "Compound concentration 10.0 uM; call rule not given here"}, "[8]": {"biological_target": "Rho-associated protein kinase 1 (Homo sapiens, UniProt Q13464)", "experiment": "ROCK1 Eurofins SafetyScreen (Other)", "set-up": "species or system Inhibitor"}, "[9]": {"biological_target": "Vascular endothelial growth factor receptor 2 (Homo sapiens, UniProt P35968)", "experiment": "VEGFR2 Eurofins SafetyScreen (Other)", "set-up": "species or system Inhibitor"}, "[10]": {"biological_target": "Beta-2 adrenergic receptor (Homo sapiens, UniProt P07550)", "sequence (P07550 whole entry)": "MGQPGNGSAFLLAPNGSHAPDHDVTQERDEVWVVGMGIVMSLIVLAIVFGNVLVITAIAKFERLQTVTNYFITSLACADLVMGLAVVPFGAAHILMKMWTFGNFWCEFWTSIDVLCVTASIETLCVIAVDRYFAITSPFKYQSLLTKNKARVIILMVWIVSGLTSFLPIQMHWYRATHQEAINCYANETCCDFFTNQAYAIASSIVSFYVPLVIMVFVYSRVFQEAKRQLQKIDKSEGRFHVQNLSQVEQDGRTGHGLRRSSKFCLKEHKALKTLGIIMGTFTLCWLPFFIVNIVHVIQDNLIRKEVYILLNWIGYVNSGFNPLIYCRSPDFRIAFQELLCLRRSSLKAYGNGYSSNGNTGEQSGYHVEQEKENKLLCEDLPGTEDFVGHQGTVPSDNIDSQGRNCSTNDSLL", "experiment": "ADRB2 Eurofins SafetyScan (Receptor)"}, "[11]": {"biological_target": "Neuronal acetylcholine receptor; alpha4/beta2 (Homo sapiens, UniProt P17787+P43681)", "experiment": "nAChR(a4/b2) Eurofins SafetyScreen (Other)", "set-up": "species or system Blocker"}, "[12]": {"biological_target": "5-hydroxytryptamine receptor 2C (Homo sapiens) (UniProt P28335)", "conditions": "Compound concentration 10.0 uM"}, "[13]": {"biological_target": "Sigma non-opioid intracellular receptor 1 (Homo sapiens) (UniProt Q99720)", "conditions": "Compound concentration 10.0 uM"}, "[14]": {"biological_target": "D(4) dopamine receptor (Homo sapiens) (UniProt P21917)", "conditions": "Compound concentration 10.0 uM"}, "[15]": {"experiment": "AMPA receptor scintillation proximity binding assay", "set-up": "species or system Homo sapiens"}, "[16]": {"biological_target": "Histamine H4 receptor (Homo sapiens) (UniProt Q9H3N8)", "sequence (Q9H3N8 whole entry)": "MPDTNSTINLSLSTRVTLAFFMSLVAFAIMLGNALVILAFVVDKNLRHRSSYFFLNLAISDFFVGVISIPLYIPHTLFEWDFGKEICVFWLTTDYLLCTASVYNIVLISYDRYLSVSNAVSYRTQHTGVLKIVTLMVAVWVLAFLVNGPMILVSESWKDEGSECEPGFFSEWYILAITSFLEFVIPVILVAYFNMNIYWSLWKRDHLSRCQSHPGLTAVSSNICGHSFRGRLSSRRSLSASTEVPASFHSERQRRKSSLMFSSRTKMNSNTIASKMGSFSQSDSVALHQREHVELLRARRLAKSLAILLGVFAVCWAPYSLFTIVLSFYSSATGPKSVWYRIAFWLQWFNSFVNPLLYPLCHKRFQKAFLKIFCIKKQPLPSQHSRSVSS", "conditions": "Compound concentration 10.0 uM"}, "Mu-type opioid receptor [17]": {"biological_target": "T1, Mu-type opioid receptor", "conditions": "Compound concentration 10.0 uM"}, "[18]": {"biological_target": "5-hydroxytryptamine receptor 1A (Homo sapiens) (UniProt P08908)", "sequence (P08908 whole entry)": "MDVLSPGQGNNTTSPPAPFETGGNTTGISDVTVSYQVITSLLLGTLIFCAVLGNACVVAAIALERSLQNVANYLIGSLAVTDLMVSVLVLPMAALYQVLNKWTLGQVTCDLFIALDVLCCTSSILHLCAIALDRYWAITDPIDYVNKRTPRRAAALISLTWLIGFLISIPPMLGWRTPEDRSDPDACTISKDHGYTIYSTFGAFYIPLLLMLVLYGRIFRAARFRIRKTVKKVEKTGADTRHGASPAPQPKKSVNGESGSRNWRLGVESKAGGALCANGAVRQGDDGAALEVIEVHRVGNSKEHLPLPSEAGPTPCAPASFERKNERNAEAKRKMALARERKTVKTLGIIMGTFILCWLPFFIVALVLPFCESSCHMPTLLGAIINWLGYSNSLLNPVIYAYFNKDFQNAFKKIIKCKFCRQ", "conditions": "Compound concentration 10.0 uM"}, "[19]": {"biological_target": "Sodium channel protein type 5 subunit alpha (Homo sapiens, UniProt Q14524)", "experiment": "NAV1.5 Eurofins SafetyScreen (Other)", "set-up": "species or system Blocker"}, "[20]": {"biological_target": "Cholecystokinin receptor type A (Homo sapiens, UniProt P32238)", "sequence (P32238 whole entry)": "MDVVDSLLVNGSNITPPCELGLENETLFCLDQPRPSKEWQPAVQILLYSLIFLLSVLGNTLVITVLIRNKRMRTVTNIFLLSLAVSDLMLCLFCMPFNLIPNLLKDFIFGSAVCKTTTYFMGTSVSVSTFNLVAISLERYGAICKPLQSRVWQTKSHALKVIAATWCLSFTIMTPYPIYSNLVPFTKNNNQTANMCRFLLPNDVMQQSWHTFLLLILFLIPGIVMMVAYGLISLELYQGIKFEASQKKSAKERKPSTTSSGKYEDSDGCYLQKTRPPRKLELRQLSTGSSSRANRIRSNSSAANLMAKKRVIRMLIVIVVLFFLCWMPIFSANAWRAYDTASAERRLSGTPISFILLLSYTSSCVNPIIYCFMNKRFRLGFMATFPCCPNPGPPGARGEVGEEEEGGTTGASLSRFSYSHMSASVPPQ", "experiment": "CCKAR Eurofins SafetyScan (Receptor)"}, "[21]": {"biological_target": "5-hydroxytryptamine receptor 2B (Homo sapiens, UniProt P41595)", "conditions": "Compound concentration 10.0 uM"}, "[22]": {"biological_target": "Muscarinic acetylcholine receptor M1 (Homo sapiens) (UniProt P11229)", "sequence (P11229 whole entry)": "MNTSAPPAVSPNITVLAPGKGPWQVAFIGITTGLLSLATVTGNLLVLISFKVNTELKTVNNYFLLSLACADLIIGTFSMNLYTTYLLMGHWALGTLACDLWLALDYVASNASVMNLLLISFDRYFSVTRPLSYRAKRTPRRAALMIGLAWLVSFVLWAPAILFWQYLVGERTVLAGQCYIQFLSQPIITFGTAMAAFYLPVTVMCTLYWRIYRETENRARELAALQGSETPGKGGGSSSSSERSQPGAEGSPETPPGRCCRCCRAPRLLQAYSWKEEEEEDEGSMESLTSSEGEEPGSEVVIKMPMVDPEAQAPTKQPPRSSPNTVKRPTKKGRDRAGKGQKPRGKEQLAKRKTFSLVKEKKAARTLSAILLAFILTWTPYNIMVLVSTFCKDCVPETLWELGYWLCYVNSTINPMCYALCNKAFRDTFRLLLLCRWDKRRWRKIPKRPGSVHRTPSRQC", "conditions": "Compound concentration 10.0 uM"}, "[23]": {"biological_target": "Delta-type opioid receptor (Homo sapiens, UniProt P41143)", "conditions": "Compound concentration 10.0 uM"}, "Histamine H1 receptor": {"biological_target": "Histamine H1 receptor (Homo sapiens, UniProt P35367)", "sequence (P35367 whole entry)": "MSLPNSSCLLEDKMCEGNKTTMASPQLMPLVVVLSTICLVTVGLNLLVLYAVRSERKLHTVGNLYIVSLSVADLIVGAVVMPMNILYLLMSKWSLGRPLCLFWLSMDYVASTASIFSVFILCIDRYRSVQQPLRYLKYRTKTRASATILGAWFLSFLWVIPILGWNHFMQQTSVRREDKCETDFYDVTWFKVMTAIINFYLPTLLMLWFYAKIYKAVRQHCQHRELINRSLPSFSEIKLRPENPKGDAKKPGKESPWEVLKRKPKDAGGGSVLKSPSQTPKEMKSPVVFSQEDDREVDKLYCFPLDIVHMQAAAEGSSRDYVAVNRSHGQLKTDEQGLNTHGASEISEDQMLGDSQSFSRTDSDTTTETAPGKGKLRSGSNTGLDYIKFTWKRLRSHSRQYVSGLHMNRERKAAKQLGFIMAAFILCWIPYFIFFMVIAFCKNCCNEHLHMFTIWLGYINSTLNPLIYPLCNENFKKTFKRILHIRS", "experiment": "HRH1 Eurofins SafetyScan (Receptor)"}, "[24]": {"biological_target": "5-hydroxytryptamine receptor 6 (Homo sapiens) (UniProt P50406)", "conditions": "Compound concentration 10.0 uM"}, "[25]": {"biological_target": "Alpha-2A adrenergic receptor (Homo sapiens) (UniProt P08913)", "conditions": "Compound concentration 10.0 uM"}, "[26]": {"biological_target": "T3, Beta-1 adrenergic receptor (Homo sapiens, UniProt P08588)", "conditions": "Compound concentration 10.0 uM"}, "[27]": {"biological_target": "Histamine H3 receptor (Homo sapiens) (UniProt Q9Y5N1)", "conditions": "Compound concentration 10.0 uM"}, "[28]": {"biological_target": "T3, Beta-1 adrenergic receptor", "experiment": "ADRB1 Eurofins SafetyScan (Receptor)"}, "[29]": {"biological_target": "Alpha-1A adrenergic receptor (Homo sapiens, UniProt P35348)", "sequence (P35348 whole entry)": "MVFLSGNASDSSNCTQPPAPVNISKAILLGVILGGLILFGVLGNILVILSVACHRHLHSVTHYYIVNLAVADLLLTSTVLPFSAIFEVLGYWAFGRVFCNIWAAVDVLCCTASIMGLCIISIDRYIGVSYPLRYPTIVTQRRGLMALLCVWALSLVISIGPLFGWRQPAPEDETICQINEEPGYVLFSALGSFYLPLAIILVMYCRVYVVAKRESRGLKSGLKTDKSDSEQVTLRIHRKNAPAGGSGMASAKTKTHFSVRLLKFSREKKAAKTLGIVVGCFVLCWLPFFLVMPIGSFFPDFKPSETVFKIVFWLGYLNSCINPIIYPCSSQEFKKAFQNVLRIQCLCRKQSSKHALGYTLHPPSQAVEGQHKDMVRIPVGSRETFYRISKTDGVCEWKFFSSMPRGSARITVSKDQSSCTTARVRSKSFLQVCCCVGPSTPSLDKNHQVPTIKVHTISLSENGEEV", "experiment": "ADRA1A Eurofins SafetyScan (Receptor)"}, "D(2) dopamine receptor": {"biological_target": "D(2) dopamine receptor (Homo sapiens, UniProt P14416)", "conditions": "Compound concentration 10.0 uM"}, "[30]": {"biological_target": "T4, 5-hydroxytryptamine receptor 1D (Homo sapiens, UniProt P28221)", "T4 sequence (P28221 whole entry)": "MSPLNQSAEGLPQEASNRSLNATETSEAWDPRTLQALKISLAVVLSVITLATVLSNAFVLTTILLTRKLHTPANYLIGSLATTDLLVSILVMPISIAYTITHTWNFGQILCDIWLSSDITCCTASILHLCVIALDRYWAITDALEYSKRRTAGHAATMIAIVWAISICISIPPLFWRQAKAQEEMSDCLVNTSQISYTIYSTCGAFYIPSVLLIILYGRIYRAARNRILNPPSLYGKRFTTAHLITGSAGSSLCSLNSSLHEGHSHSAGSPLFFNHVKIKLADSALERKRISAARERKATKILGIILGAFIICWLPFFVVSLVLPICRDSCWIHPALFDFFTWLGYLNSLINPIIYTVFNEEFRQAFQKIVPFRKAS", "conditions": "Compound concentration 10.0 uM"}, "[31]": {"biological_target": "Muscarinic acetylcholine receptor M5 (Homo sapiens) (UniProt P08912)", "conditions": "Compound concentration 10.0 uM"}, "[32]": {"biological_target": "Alpha-2C adrenergic receptor (Homo sapiens) (UniProt P18825)", "conditions": "Compound concentration 10.0 uM"}, "[33]": {"biological_target": "T4, 5-hydroxytryptamine receptor 1D", "experiment": "GPCRScan assay: inhibition of 5-HT1D", "set-up": "radioligand conc. used [nm] 1.0 – 2.0, parental cells HEKT"}, "[34]": {"biological_target": "T2, Sodium-dependent dopamine transporter", "conditions": "Compound concentration 10.0 uM"}, "[35]": {"biological_target": "5-hydroxytryptamine receptor 5A (Homo sapiens) (UniProt P47898)", "conditions": "Compound concentration 10.0 uM"}, "[36]": {"biological_target": "Alpha-2B adrenergic receptor (Homo sapiens) (UniProt P18089)", "conditions": "Compound concentration 10.0 uM"}, "[37]": {"biological_target": "Kappa-type opioid receptor (Homo sapiens, UniProt P41145)", "conditions": "Compound concentration 10.0 uM"}, "[38]": {"biological_target": "5-hydroxytryptamine receptor 2A (Homo sapiens, UniProt P28223)", "conditions": "Compound concentration 10.0 uM"}, "[39]": {"biological_target": "5-hydroxytryptamine receptor 1A (Homo sapiens, UniProt P08908)", "sequence (P08908 whole entry)": "as the sequence (P08908 whole entry) above", "experiment": "HTR1A Eurofins SafetyScan (Receptor)"}, "Cannabinoid receptor 2": {"biological_target": "Cannabinoid receptor 2 (Homo sapiens, UniProt P34972)", "sequence (P34972 whole entry)": "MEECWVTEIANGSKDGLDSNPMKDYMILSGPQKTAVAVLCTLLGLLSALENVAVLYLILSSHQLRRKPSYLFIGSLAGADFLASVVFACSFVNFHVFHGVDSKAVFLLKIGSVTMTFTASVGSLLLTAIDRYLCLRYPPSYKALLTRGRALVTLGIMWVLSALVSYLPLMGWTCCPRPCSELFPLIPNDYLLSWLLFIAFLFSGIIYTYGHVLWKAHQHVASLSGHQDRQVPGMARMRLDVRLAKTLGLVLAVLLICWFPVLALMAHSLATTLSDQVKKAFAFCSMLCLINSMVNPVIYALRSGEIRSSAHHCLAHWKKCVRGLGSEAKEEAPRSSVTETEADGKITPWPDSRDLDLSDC", "experiment": "CNR2 Eurofins SafetyScan (Receptor)"}, "[40]": {"biological_target": "Muscarinic acetylcholine receptor M1 (Homo sapiens, UniProt P11229)", "sequence (P11229 whole entry)": "as the sequence (P11229 whole entry) above", "experiment": "CHRM1 Eurofins SafetyScan (Receptor)"}, "[41]": {"biological_target": "Voltage-dependent L-type calcium channel subunit alpha-1C (Homo sapiens, UniProt Q13936)", "experiment": "CAV1.2 Eurofins SafetyScreen (Other)", "set-up": "species or system Blocker"}, "[42]": {"biological_target": "5-hydroxytryptamine receptor 1E (Homo sapiens) (UniProt P28566)", "conditions": "Compound concentration 10.0 uM"}, "[43]": {"biological_target": "Glutamate receptor ionotropic, NMDA 1 (Homo sapiens, UniProt Q05586+Q13224)", "experiment": "NMDAR (1A/2B) Eurofins SafetyScreen (Other)", "set-up": "species or system Blocker"}}, "data": [{"molecule": "Cc1cn([C@H](C)CC#N)c(=O)c2cc(Cn3nc(C(F)F)cc3Cl)nn12", "values": [{"measurement": "IC50", "setting": "[1]", "result": "> 10", "unit": "µM"}, {"measurement": "IC50", "setting": "[2]", "result": "> 10", "unit": "µM"}, {"measurement": "EC50", "setting": "Mu-type opioid receptor [3]", "result": "> 10", "unit": "µM"}, {"measurement": "IC50", "setting": "Mu-type opioid receptor [3]", "result": "> 10", "unit": "µM"}, {"measurement": "IC50", "setting": "[4]", "result": "> 10", "unit": "µM"}, {"measurement": "IC50", "setting": "Insulin receptor", "result": "> 10", "unit": "µM"}, {"measurement": "Ki", "setting": "[5]; read-out: Ki", "result": 9.53, "unit": "µM"}, {"measurement": "Ki", "setting": "[5]; read-out: pKi (converted)", "result": 9.55, "unit": "µM"}, {"measurement": "Ki", "setting": "[6]", "result": 336, "unit": "nM"}, {"measurement": "pKi", "setting": "[6]", "result": 6.47}, {"measurement": "inhibition", "setting": "[7]", "result": -4, "unit": "%"}, {"measurement": "IC50", "setting": "[8]", "result": "> 10", "unit": "µM"}, {"measurement": "IC50", "setting": "[9]", "result": "> 10", "unit": "µM"}, {"measurement": "EC50", "setting": "[10]", "result": "> 10", "unit": "µM"}, {"measurement": "IC50", "setting": "[10]", "result": "> 10", "unit": "µM"}, {"measurement": "IC50", "setting": "[11]", "result": "> 10", "unit": "µM"}, {"measurement": "inhibition", "setting": "[12]", "result": 13.1, "unit": "%"}, {"measurement": "inhibition", "setting": "[13]", "result": 1.48, "unit": "%"}, {"measurement": "inhibition", "setting": "[14]", "result": 48.5, "unit": "%"}, {"measurement": "IC50", "setting": "[15]", "result": "> 30 µM (not active)"}, {"measurement": "inhibition", "setting": "[16]", "result": 25.2, "unit": "%"}, {"measurement": "inhibition", "setting": "Mu-type opioid receptor [17]", "result": 0.85, "unit": "%"}, {"measurement": "inhibition", "setting": "[18]", "result": -5.4, "unit": "%"}, {"measurement": "IC50", "setting": "[19]", "result": "> 10", "unit": "µM"}, {"measurement": "EC50", "setting": "[20]", "result": "> 10", "unit": "µM"}, {"measurement": "IC50", "setting": "[20]", "result": "> 10", "unit": "µM"}, {"measurement": "inhibition", "setting": "[21]", "result": 42.7, "unit": "%"}, {"measurement": "inhibition", "setting": "[22]", "result": 12.5, "unit": "%"}, {"measurement": "inhibition", "setting": "[23]", "result": -4.95, "unit": "%"}, {"measurement": "EC50", "setting": "Histamine H1 receptor", "result": "> 10", "unit": "µM"}, {"measurement": "IC50", "setting": "Histamine H1 receptor", "result": "> 10", "unit": "µM"}, {"measurement": "inhibition", "setting": "[24]", "result": 8.34, "unit": "%"}, {"measurement": "inhibition", "setting": "[25]", "result": 15.9, "unit": "%"}, {"measurement": "inhibition", "setting": "[26]", "result": 4.09, "unit": "%"}, {"measurement": "inhibition", "setting": "[27]", "result": 34.8, "unit": "%"}, {"measurement": "EC50", "setting": "[28]", "result": "> 10", "unit": "µM"}, {"measurement": "IC50", "setting": "[28]", "result": "> 10", "unit": "µM"}, {"measurement": "EC50", "setting": "[29]", "result": "> 10", "unit": "µM"}, {"measurement": "IC50", "setting": "[29]", "result": "> 10", "unit": "µM"}, {"measurement": "inhibition", "setting": "D(2) dopamine receptor", "result": 9.18, "unit": "%"}, {"measurement": "inhibition", "setting": "[30]", "result": 90.8, "unit": "%"}, {"measurement": "inhibition", "setting": "[31]", "result": 17.9, "unit": "%"}, {"measurement": "inhibition", "setting": "[32]", "result": -1.11, "unit": "%"}, {"measurement": "Ki", "setting": "[33]", "result": "> 10", "unit": "µM"}, {"measurement": "pKi", "setting": "[33]", "result": "< 5"}, {"measurement": "inhibition", "setting": "[34]", "result": 54.8, "unit": "%"}, {"measurement": "inhibition", "setting": "[35]", "result": 7.54, "unit": "%"}, {"measurement": "inhibition", "setting": "[36]", "result": 6.16, "unit": "%"}, {"measurement": "inhibition", "setting": "[37]", "result": 2.27, "unit": "%"}, {"measurement": "inhibition", "setting": "[38]", "result": -5.37, "unit": "%"}, {"measurement": "EC50", "setting": "[39]", "result": "> 10", "unit": "µM"}, {"measurement": "IC50", "setting": "[39]", "result": "> 10", "unit": "µM"}, {"measurement": "EC50", "setting": "Cannabinoid receptor 2", "result": "> 10", "unit": "µM"}, {"measurement": "IC50", "setting": "Cannabinoid receptor 2", "result": "> 10", "unit": "µM"}, {"measurement": "EC50", "setting": "[40]", "result": "> 10", "unit": "µM"}, {"measurement": "IC50", "setting": "[40]", "result": "> 10", "unit": "µM"}, {"measurement": "IC50", "setting": "[41]", "result": "> 10", "unit": "µM"}, {"measurement": "inhibition", "setting": "[42]", "result": 6.65, "unit": "%"}, {"measurement": "IC50", "setting": "[43]", "result": "> 10", "unit": "µM"}]}]}
